Marks after values point to notes of the source that are not given here.
Tests used:
[1] = target: T1, p38 MAPKα isoform (MAPK14: Invitrogen) (Homo sapiens, UniProt Q16539); experiment: p38 MAPKα enzyme inhibition assay (FRET, Z-LYTE, via MAPKAP-K2 activation); format: biochemical; settings: 2 hr pre-incubation, ATP 10.0 μM; read-out: Enzyme Inhibition IC50 p38α
T1 construct: purchased Invitrogen

[2] = target: T2, Recombinant, phosphorylated p38 MAPKγ (MAPK12:Invitrogen) (Homo sapiens, UniProt P53778); experiment: p38 MAPKγ enzyme inhibition assay (FRET, Z-LYTE); format: biochemical; settings: 2 hr pre-incubation, ATP 100 μM; read-out: Enzyme Inhibition IC50 p38γ
T2 construct: purchased Invitrogen
T2 sequence (P53778 1-367): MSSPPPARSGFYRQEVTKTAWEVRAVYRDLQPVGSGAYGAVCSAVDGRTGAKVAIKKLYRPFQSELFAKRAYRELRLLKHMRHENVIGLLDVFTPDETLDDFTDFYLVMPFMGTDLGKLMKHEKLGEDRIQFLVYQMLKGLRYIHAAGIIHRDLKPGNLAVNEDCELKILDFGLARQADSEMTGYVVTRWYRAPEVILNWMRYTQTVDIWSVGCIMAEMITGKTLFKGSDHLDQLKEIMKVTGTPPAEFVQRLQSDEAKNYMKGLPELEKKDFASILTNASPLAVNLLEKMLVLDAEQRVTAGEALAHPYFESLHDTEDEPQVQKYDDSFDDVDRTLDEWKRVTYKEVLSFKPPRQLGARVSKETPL
Procedure: The enzyme inhibitory activities of compounds disclosed herein were determined by fluorescence resonance energy transfer (FRET) using synthetic peptides labelled with both donor and acceptor fluorophores (Z-LYTE, Invitrogen Ltd., Paisley, UK). Recombinant, phosphorylated p38 MAPKγ (MAPK12:Invitrogen) was diluted in HEPES buffer, mixed with the test compound at the desired final concentrations and incubated for 2 hr at RT. The FRET peptide (2 μM) and ATP (100 μM) were added to the enzyme/compound mixture and incubated for 1 hr. Development reagent (protease) was added for 1 hr prior to detection in a fluorescence microplate reader (Varioskan® Flash, ThermoFisher Scientific). The site-specific protease cleaves non-phosphorylated peptide only and eliminates the FRET signal. Phosphorylation levels of each reaction were calculated using the ratio of coumarin emission (donor) over fluorescein emission (acceptor) for which high ratios indicate high phosphorylation and low ratios indicate low phosphorylation levels.

[3] = test system: LPS-induced TNFα release in THP-1 cells; experiment: LPS-induced TNFα release in THP-1 cells; format: cell-based; settings: Homo sapiens, 3 μg/mL LPS, 4 hr
Procedure: Cellular Potency as Determined by LPS-Induced TNFα Release in THP-1 Cells
THP-1 cells, a human monocytic cell line, were stimulated with 3 μg/mL of LPS (from E. Coli; 0111:B4, Sigma) for 4 hr and the supernatant collected for determination of the TNFα concentration by sandwich ELISA (Duo-set, R&D systems). The inhibition of TNFα production was calculated at each concentration by comparison with vehicle control. The 50% inhibitory concentration (IC50) was determined from the resultant concentration-response curve.

[4] = test system: LPS-induced TNFα release in d-U937 cells; experiment: LPS-induced TNFα release in d-U937 cells; format: cell-based; settings: Homo sapiens, dU937, 4 h; read-out: LPS/TNFα REC50 d-U937
Procedure: (§1) Cellular Potency as Determined by LPS-Induced TNFα/IL-8 Release in d-U937Cells
(§2) U937 cells, a human monocytic cell line, were differentiated to macrophage-type cells by incubation with phorbol myristate acetate (PMA; 100 ng/mL) for 48 to 72 hr. Cells were pre-incubated with final concentrations of test compound for 2 hr and were then stimulated with 0.1 μg/mL of LPS (from E. Coli: O111:B4, Sigma) for 4 hr. The supernatant was collected for determination of TNFα and IL-8 concentrations by sandwich ELISA (Duo-set, R&D systems). […] The relative 50% effective concentration (REC50) was determined from the resultant concentration-response curve. The inhibition of IL-8 production was calculated at each concentration of test compound by comparison with vehicle control. The 50% inhibitory concentration (IC50) was determined from the resultant concentration-response curve.

[5] = test system: LPS-induced IL-8 release in d-U937 cells; experiment: LPS-induced IL-8 release in d-U937 cells; format: cell-based; settings: Homo sapiens, dU937, 0.1 μg/mL LPS, 4 hr
Procedure: as §1, §2

[6] = test system: Poly I:C-induced ICAM-1 expression in BEAS2B cells; experiment: Poly I:C-induced ICAM-1 induction in BEAS2B cells; format: cell-based; settings: Homo sapiens, BEAS-2B, poly I:C 1 μg/mL, 18 hr, read-out: PolyI:C/ICAM1 IC50 BEAS2B
Procedure: Cellular Potency as Determined by Poly I:C-Induced ICAM-1 Induction in BEAS2B Cells
Poly I:C (1 μg/mL) (Invivogen Ltd., San Diego, Calif.) was transfected into BEAS2B cells (human bronchial epithelial cells, ATCC) with Oligofectamine (Invitrogen, Carlsbad, Calif.). Cells were pre-incubated with final concentrations of test compounds for 2 hr and the level of ICAM1 expression on the cell surface was determined by cell-based ELISA. At a time point 18 hr after poly I:C transfection, cells were fixed with 4% formaldehyde in PBS and then endogenous peroxidase was quenched by the addition of 0.1% sodium azide and 1% hydrogen peroxide. Cells were washed with wash-buffer (0.1% Tween in PBS: PBS-Tween). and after blocking the wells with 5% milk in PBS-Tween for 1 hr, the cells were incubated with anti-human ICAM-1 antibody (Cell Signaling Technology, Danvers, Mass.) in 1% BSA PBS overnight at 4° C. The cells were washed with PBS-Tween and incubated with the secondary antibody (HRP-conjugated anti-rabbit IgG, Dako Ltd., Glostrup, Denmark). The ICAM-1 signal was detected by adding substrate and reading the absorbance at 450 nm against a reference wavelength of 655 nm using a spectrophotometer. The cells were then washed with PBS-Tween and total cell numbers in each well were determined by reading absorbance at 595 nm after Crystal Violet staining and elution by 1% SDS solution. The measured OD 450-655 readings were corrected for cell number by dividing with the OD595 reading in each well. The inhibition of ICAM-1 expression was calculated at each concentration of test compound by comparison with vehicle control. The 50% inhibitory concentration (IC50) was determined from the resultant concentration-response curve.

[7] = test system: Differentiated U937 cells; experiment: MTT assay: cell viability on exposure to test compounds; format: cell-based, human; settings: percentage loss of cell viability vs vehicle; for MTT Assay (Viability) 4 h d-U937: 5% FCS; for MTT Assay (Viability) 24 h d-U937: 10% FCS
Procedure: MTT Assay: Determination of Cell Viability on Exposure to Test Compounds
Differentiated U937 cells were pre-incubated with each test compound under two protocols: the first for 4 hr in 5% FCS and the second in 10% FCS for 24 h. The supernatant was replaced with 200 μL of new media and 10 μL of MTT stock solution (5 mg/mL) was added to each well. After incubation for 1 hr the media were removed, 200 μL of DMSO was added to each well and the plates were shaken lightly for 1 hr prior to reading the absorbance at 550 nm. The percentage loss of cell viability was calculated for each well relative to vehicle (0.5% DMSO) treatment. Consequently an apparent increase in cell viability for drug treatment relative to vehicle is tabulated as a negative percentage.

T1 sequence (Q16539 whole entry, canonical isoform): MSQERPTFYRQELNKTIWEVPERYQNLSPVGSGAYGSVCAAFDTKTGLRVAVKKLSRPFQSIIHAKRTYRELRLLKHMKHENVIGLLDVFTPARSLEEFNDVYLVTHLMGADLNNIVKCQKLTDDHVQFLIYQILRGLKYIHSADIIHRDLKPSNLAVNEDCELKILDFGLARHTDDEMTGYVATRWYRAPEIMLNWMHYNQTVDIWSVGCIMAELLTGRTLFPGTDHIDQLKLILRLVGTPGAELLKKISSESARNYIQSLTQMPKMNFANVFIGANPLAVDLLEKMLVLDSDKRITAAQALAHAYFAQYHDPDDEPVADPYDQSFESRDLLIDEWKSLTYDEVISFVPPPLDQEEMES

| Structure (SMILES) | IC50 [1] | IC50 [2] | IC50 [3] | EC50 [4] | IC50 [5] | IC50 [6] | MTT Assay (Viability) 4 h d-U937 ([7]; 1 μg/mL) | MTT Assay (Viability) 24 h d-U937 ([7]; 1 μg/mL) | MTT Assay (Viability) 4 h d-U937 ([7]; 10 μg/mL) | MTT Assay (Viability) 24 h d-U937 ([7]; 10 μg/mL) |
| --- | --- | --- | --- | --- | --- | --- | --- | --- | --- | --- |
| COCC(=O)Nc1cc(Sc2ccc(NC(=O)Nc3cc(C(C)(C)C)nn3-c3ccc(C)cc3)c3ccccc23)ccn1 [Example 21, N-(4-(4-(3-(3-tert-Butyl-1-p-tolyl-1H-pyrazol-5-yl)ureido)naphthalen-1-ylthio)pyridin-2-yl)-2-methoxyacetamide] | 26 nM | 341 nM | 2.5 nM | 6.6 nM | 30.3 nM | 6.3 nM | 2.7% | 5.3% | – | – |
| CCNC(=O)Nc1cc(Cc2ccc(NC(=O)Nc3cc(C(C)(C)C)nn3-c3ccc(C)cc3)c3ccccc23)ccn1 [Example 23, 1-(3-(tert-Butyl)-1-(p-tolyl)-1H-pyrazol-5-yl)-3-(4-((2-(3-ethylureido)pyridin-4-yl)methyl)naphthalen-1-yl)urea] | 20.3 nM | 3010 nM | 12.4 nM | 3.4 nM | 21.4 nM | 20.3 nM | – | – | 15.2^b % | −1.7^b % |
| COCC(=O)Nc1cc(Oc2ccc(NC(=O)Nc3cc(C4CC4)nn3-c3ccc(C)cc3)c3ccccc23)ccn1 [Example 24, N-(4-((4-(3-(3-cyclopropyl-1-p-tolyl-1H-pyrazol-5-yl)ureido)naphthalen-1-yl)oxy)pyridin-2-yl)-2-methoxyacetamide] | 1.5 nM | 1340 nM | 11.8 nM | 3.3 nM | 35.6 nM | 110 nM | −10.8% | −7.4% | – | – |
| COCC(=O)Nc1cc(Oc2ccc(NC(=O)Nc3cc(C45CC6CC(CC(C6)C4)C5)nn3-c3ccc(C)cc3)c3ccccc23)ccn1 [Example 27, N-(4-(4-(3-(3-(adamantan-1-yl)-1-p-tolyl-1H-pyrazol-5-yl)ureido)naphthalen-1-yloxy)pyridin-2-yl)-2-methoxyacetamide] | 74.3 nM | 1970 nM | 15.2 nM | 18.8 nM | 3520 nM | 284 nM | −4.6% | −23.9% | – | – |
| COCC(=O)Nc1cc(Oc2ccc(NC(=O)Nc3cc(C4CCOCC4)nn3-c3ccc(C)cc3)c3ccccc23)ccn1 [Example 28, 2-methoxy-N-(4-(4-(3-(3-(tetrahydro-2H-pyran-4-yl)-1-p-tolyl-1H-pyrazol-5-yl)ureido)naphthalen-1-yloxy)pyridin-2-yl)acetamide] | 1.4 nM | 9300 nM | 41.3 nM | 7.1 nM | 62.7 nM | 1580 nM | −23.7% | −34.5% | – | – |
| COCC(=O)Nc1cc(Oc2ccc(NC(=O)Nc3cc(C(F)(F)C(F)(F)F)nn3-c3ccc(C)cc3)c3ccccc23)ccn1 [Example 30, 2-methoxy-N-(4-(4-(3-(3-(perfluoroethyl)-1-p-tolyl-1H-pyrazol-5-yl)ureido)naphthalen-1-yloxy)pyridin-2-yl)acetamide] | 10.1 nM | > 15600 nM | 10.2 nM | 108 nM | 1910 nM | 1490 nM | −6.3% | −46.1% | – | – |
| CNS(=O)(=O)Cc1ccc(-n2nc(C(C)(C)C)cc2NC(=O)Nc2ccc(Oc3ccnc(NC(=O)COC)c3)c3ccccc23)cc1 [Example 31, N-(4-(4-(3-(3-tert-butyl-1-(4-((N-methylsulfamoyl)methyl)phenyl)-1H-pyrazol-5-yl)ureido)naphthalen-1-yloxy)pyridin-2-yl)-2-methoxyacetamide] | 17.1 nM | 77.2 nM | 1 nM | 0.8 nM | 19.6 nM | > 149 nM | 1.7% | 50.1% | – | – |

Now from value to compound, other results behind:

| IC50 [1] | IC50 [2] | IC50 [3] | EC50 [4] | IC50 [5] | Structure (SMILES) | IC50 [6] | MTT Assay (Viability) 4 h d-U937 ([7]; 1 μg/mL) | MTT Assay (Viability) 24 h d-U937 ([7]; 1 μg/mL) | MTT Assay (Viability) 4 h d-U937 ([7]; 10 μg/mL) | MTT Assay (Viability) 24 h d-U937 ([7]; 10 μg/mL) |
| --- | --- | --- | --- | --- | --- | --- | --- | --- | --- | --- |
| 14 nM | 7030 nM | 53.6 nM | 3 nM | 651 nM | COCCOCC(=O)Nc1cc(C(=O)c2ccc(NC(=O)Nc3cc(C(C)(C)C)nn3-c3ccc(C)cc3)c3ccccc23)ccn1 [Example 22, N-(4-(4-(3-(3-(tert-Butyl)-1-(p-tolyl)-1H-pyrazol-5-yl)ureido)-1-naphthoyl)pyridin-2-yl)-2-(2-methoxyethoxy)acetamide] | 572 nM | – | – | 21.1^b % | 80.8^b % |
| 48.2 nM | 779 nM | 3.5 nM | 0.4 nM | 1 nM | COCC(=O)Nc1cc(Oc2ccc(NC(=O)Nc3cc(C4(C)CCCCC4)nn3-c3ccc(C)cc3)c3ccccc23)ccn1 [Example 26, 2-methoxy-N-(4-(4-(3-(3-(1-methylcyclohexyl)-1-p-tolyl-1H-pyrazol-5-yl)ureido)naphthalen-1-yloxy)pyridin-2-yl)acetamide] | 4.4 nM | −27.9% | −33.2% | – | – |
| 7.7 nM | 14500 nM | 138 nM | 3300 nM | > 1690 nM | COCC(=O)Nc1cc(Oc2ccc(NC(=O)Nc3cc(C(F)(F)F)nn3-c3ccc(C)cc3)c3ccccc23)ccn1 [Example 29, 2-methoxy-N-(4-(4-(3-(1-p-tolyl-3-(trifluoromethyl)-1H-pyrazol-5-yl)ureido)naphthalen-1-yloxy)pyridin-2-yl)acetamide] | 412 nM | 0.8% | −5.7% | – | – |
| 7.7 nM | 78.4 nM | 0.7 nM | 0.1 nM | 0.7 nM | COCC(=O)Nc1cc(Oc2ccc(NC(=O)Nc3cc(C(C)(C)C)nn3-c3cccc(O)c3)c3ccccc23)ccn1 [Example 32, N-(4-(4-(3-(3-tert-butyl-1-(3-hydroxyphenyl)-1H-pyrazol-5-yl)ureido)naphthalen-1-yloxy)pyridin-2-yl)-2-methoxyacetamide] | 5.5 nM | 5.8% | 42.2% | – | – |

Source: patent publication US9024041B2, “P38 MAP kinase inhibitors” (Respivert Ltd., priority 2010, dated 2015)
